According to ChEMBL document CHEMBL5335856, “Structurally Diverse Alkaloids with Anti-Renal-Fibrosis Activity from the Centipede Scolopendra subspinipes mutilans” (J Nat Prod, 2024):
Active and inactive are the calls of the source. The rule behind the calls is not given here.

How the values were obtained:
[1] = target: Tropomyosin alpha-3 chain (Homo sapiens) (UniProt P06753); assay: Binding affinity to Tpm3 (unknown origin) at 200 uM preincubated for 2 hrs followed by pronase addition and measured after 30 mins by coomassie blue staining based SDS-PAGE gel analysis
Chain of Tropomyosin alpha-3 chain (Homo sapiens) (P06753 whole entry): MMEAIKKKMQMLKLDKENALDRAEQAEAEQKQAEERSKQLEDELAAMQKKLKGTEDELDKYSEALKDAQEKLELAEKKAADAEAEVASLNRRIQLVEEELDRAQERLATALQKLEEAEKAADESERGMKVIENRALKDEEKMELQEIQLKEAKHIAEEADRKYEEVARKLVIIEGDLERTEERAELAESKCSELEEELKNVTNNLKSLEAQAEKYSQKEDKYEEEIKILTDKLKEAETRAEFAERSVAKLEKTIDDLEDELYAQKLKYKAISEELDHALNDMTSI

[2] = target: Far upstream element-binding protein 1 (Homo sapiens) (UniProt Q96AE4); assay: Binding affinity to Fubp1 (unknown origin) assessed as fold change in protein upregulation at 200 uM preincubated for 2 hrs followed by pronase addition and measured after 30 mins by coomassie blue staining based SDS-PAGE gel analysis
Chain of Far upstream element-binding protein 1 (Homo sapiens) (Q96AE4 whole entry): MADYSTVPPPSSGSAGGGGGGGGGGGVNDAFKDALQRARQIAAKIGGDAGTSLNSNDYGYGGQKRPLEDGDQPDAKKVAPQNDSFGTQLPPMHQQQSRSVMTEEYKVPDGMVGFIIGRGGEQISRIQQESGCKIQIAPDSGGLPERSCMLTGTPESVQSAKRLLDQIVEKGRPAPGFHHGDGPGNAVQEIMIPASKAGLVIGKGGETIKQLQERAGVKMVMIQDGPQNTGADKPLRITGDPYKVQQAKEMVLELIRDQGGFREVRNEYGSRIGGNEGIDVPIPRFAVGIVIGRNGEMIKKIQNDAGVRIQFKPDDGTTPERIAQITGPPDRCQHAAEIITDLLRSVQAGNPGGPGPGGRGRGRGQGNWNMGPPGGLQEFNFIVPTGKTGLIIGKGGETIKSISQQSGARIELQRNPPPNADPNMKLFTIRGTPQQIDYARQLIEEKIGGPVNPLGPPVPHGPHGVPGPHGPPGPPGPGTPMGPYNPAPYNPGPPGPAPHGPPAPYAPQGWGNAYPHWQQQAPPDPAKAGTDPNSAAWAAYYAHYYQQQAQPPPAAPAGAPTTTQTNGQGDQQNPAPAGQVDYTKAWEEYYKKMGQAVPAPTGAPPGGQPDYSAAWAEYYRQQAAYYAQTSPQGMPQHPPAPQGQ

[3] = target: Chromosome transmission fidelity protein 18 homolog (Homo sapiens) (UniProt Q8WVB6); assay: Binding affinity to Chtf18 (unknown origin) assessed as fold change in protein upregulation at 200 uM preincubated for 2 hrs followed by pronase addition and measured after 30 mins by coomassie blue staining based SDS-PAGE gel analysis
Chain of Chromosome transmission fidelity protein 18 homolog (Homo sapiens) (Q8WVB6 whole entry): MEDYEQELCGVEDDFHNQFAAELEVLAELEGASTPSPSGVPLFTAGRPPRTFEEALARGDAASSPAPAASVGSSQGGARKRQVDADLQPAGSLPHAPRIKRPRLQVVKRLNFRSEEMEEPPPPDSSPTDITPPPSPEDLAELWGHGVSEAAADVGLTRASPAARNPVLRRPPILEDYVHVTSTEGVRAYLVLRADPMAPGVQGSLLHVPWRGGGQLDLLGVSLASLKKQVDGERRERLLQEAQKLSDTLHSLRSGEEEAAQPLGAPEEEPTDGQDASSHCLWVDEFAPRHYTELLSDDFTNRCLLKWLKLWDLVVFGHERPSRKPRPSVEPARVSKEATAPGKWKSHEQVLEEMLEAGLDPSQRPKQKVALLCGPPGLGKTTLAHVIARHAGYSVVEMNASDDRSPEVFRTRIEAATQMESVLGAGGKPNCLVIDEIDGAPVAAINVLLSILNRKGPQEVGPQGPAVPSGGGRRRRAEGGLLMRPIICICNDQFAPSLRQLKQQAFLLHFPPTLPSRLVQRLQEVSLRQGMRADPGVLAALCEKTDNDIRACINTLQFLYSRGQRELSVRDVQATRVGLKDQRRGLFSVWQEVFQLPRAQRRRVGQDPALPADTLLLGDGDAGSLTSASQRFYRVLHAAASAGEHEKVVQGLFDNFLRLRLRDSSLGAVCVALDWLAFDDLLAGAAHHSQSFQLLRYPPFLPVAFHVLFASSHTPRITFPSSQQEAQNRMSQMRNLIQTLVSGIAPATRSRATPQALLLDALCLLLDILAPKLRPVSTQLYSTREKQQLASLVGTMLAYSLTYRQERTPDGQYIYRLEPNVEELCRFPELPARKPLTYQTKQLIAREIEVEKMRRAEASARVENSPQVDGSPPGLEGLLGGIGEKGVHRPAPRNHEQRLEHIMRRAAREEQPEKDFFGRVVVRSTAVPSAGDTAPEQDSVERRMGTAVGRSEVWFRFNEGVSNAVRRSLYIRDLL

[4] = target: Protein YIF1B (Homo sapiens) (UniProt Q5BJH7); assay: Binding affinity to Yif1b (unknown origin) assessed as fold change in protein upregulation at 200 uM preincubated for 2 hrs followed by pronase addition and measured after 30 mins by coomassie blue staining based SDS-PAGE gel analysis
Chain of Protein YIF1B (Homo sapiens) (Q5BJH7 whole entry): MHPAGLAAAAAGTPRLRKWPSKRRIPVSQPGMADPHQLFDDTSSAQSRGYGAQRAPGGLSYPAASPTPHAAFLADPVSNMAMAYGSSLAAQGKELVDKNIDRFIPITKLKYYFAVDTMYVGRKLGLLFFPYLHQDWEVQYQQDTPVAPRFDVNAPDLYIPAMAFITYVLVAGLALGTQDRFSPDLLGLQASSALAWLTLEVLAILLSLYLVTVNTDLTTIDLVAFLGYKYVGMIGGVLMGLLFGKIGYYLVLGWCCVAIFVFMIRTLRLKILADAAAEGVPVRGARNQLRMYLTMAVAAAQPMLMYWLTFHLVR

- Activity [1]: Active
- fold change (FC) [2]: 1.29
- fold change (FC) [3]: 2.05
- fold change (FC) [4]: 1.76
Compound: COc1c(O)nc2c(O)cccc2c1OC
